Like-named read-outs stand apart in the source and are kept apart here.
Tests used:
Format in all cases: biochemical
[1] = molecular target: T1, MMP-12 catalytic domain (MMP-12CD) (Homo sapiens, UniProt P39900); assay: Inhibition of MMP-12 catalytic domain (thiopeptolide substrate hydrolysis)
T1 construct: MMP-3 catalytic domain, MMP-12 catalytic domain, MMP-14 catalytic domain, and MMP-17 catalytic domain
From the text: (§1) The assays measure the amount by which a test compound reduces the hydrolysis of a thiopeptolide substrate catalyzed by a matrix metalloproteinase enzyme. Such assays are described in detail by Ye et al., in Biochemistry, 1992;31(45):11231-11235, which is incorporated herein by reference. One such assay is described below in Biological Method 1.
(§2) Thiopeptolide substrates show virtually no decomposition or hydrolysis at or below neutral pH in the absence of a matrix metalloproteinase enzyme. A typical thiopeptolide substrate commonly utilized for assays is Ac-Pro-Leu-Gly-thioester-Leu-Leu-Gly-OEt. A 100 μL assay mixture will contain 50 mM of N-2-hydroxyethylpiperazine-N′-2-ethanesulfonic acid buffer (“HEPES,” pH 7.0), 10 mM CaCl2, 100 μM thiopeptolide substrate, and 1 mM 5,5′-dithio-bis-(2-nitro-benzoic acid) (DTNB). The thiopeptolide substrate concentration may be varied, for example from 10 to 800 μM to obtain Km and Kcat values. The change in absorbance at 405 nm is monitored on a Thermo Max microplate reader (molecular Devices, Menlo Park, Calif.) at room temperature (22° C.). The calculation of the amount of hydrolysis of the thiopeptolide substrate is based on E412=13600 M^−1 cm^−1 for the DTNB-derived product 3-carboxy-4-nitrothiophenoxide. Assays are carried out with and without matrix metalloproteinase inhibitor compounds, and the amount of hydrolysis is compared for a determination of inhibitory activity of the test compounds.
(§3) Test compounds were evaluated at various concentrations in order to determine their respective IC50 values, the micromolar concentration of compound required to cause a 50% inhibition of catalytic activity of the respective enzyme.
(§4) The test described above for the inhibition of MMP-13 may also be adapted and used to determine the ability of the compounds of Formula I to inhibit the matrix metalloproteases MMP-1, MMP-2, MMP-3, MMP-7, MMP-9, MMP-12 and MMP-14.

[2] = molecular target: T2, MMP-17 catalytic domain (MMP-17CD) (Homo sapiens, UniProt Q9ULZ9); assay: Inhibition of MMP-17 catalytic domain (thiopeptolide substrate hydrolysis)
T2 construct: MMP-3 catalytic domain, MMP-12 catalytic domain, MMP-14 catalytic domain, and MMP-17 catalytic domain
T2 sequence (Q9ULZ9 126-295 limits assumed): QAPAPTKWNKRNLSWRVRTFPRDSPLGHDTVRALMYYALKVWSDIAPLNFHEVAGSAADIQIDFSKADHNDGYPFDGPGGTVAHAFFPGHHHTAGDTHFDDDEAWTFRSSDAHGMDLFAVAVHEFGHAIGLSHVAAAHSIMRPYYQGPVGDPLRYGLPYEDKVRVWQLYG
From the text: as §1, §2, §3

[3] = molecular target: MMP-3 catalytic domain (MMP-3CD) (Homo sapiens, UniProt P08254); assay: Inhibition of MMP-3 catalytic domain (thiopeptolide substrate hydrolysis, MES pH 6.0)
MMP-3 catalytic domain (MMP-3CD), sequence (P08254 100-272 limits assumed, species assumed): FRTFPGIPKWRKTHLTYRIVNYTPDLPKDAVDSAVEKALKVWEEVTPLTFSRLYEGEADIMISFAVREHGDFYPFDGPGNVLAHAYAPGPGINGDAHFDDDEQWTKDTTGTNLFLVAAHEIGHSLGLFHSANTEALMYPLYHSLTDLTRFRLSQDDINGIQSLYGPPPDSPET
From the text: as §1, §2, §3
It should be appreciated that the assay buffer used with MMP-3CD was 50 mM N-morpholinoethane sulfonate (“MES”) at pH 6.0 rather than the HEPES buffer at pH 7.0 described above.

[4] = molecular target: MMP-14 catalytic domain (MMP-14CD) (Homo sapiens, UniProt P50281); assay: Inhibition of MMP-14 catalytic domain (thiopeptolide substrate hydrolysis)
From the text: as §1, §2, §3, §4

[5] = molecular target: T3, MMP-13 catalytic domain (MMP-13CD) (Homo sapiens, UniProt P45452); assay: Inhibition of MMP-13 catalytic domain (thiopeptolide substrate hydrolysis)
T3 construct: use the catalytic domain of the MMP-13 enzyme, namely matrix metalloproteinase-13 catalytic domain (“MMP-13CD”), rather than the corresponding full-length enzyme
From the text: as §1
Some of the particular methods described below use the catalytic domain of the MMP-13 enzyme, namely matrix metalloproteinase-13 catalytic domain (“MMP-13CD”), rather than the corresponding full-length enzyme, MMP-13. It has been shown previously by Ye Qi-Zhuang, Hupe D., and Johnson L. (Current Medicinal Chemistry, 1996;3:407-418) that inhibitor activity against a catalytic domain of an MMP is predictive of the inhibitor activity against the respective full-length MMP enzyme.
as §2, §3

[6] = Biological Table 1, read-out: MMP-13CD IC50
[7] = Biological Table 2, compounds of Example 66, read-out: MMP-13CD IC50

T1 sequence (P39900 106-263 limits assumed, species assumed): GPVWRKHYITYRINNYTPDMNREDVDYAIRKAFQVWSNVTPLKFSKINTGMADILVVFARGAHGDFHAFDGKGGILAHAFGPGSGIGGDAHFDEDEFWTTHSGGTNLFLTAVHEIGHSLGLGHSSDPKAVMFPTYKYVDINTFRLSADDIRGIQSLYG

SMILES | IC50 [1] | IC50 [2] | IC50 [3] | IC50 [4] | IC50 [5, 6] | IC50 [5, 7] | IC50 ([5]; read-out: IC50 with MMP-13 catalytic domain)
COc1cc(CNC(=O)c2ccc3ccn(Cc4ccc(-c5nn[nH]n5)cc4)c(=O)c3c2)ccc1O [Example 65, 1-oxo-2-[4-(2H-tetrazol-5-yl)benzyl]-1,2-dihydroisoquinoline-7-carboxylic Acid 4-hydroxy-3-methoxy-benzylamide] | > 10 µM | > 30 µM | > 100 µM | > 100 µM | 91 nM | – | –
COc1cccc(CNC(=O)c2ccc3ccn(Cc4ccc(S(C)(=O)=O)cc4)c(=O)c3c2)c1 [Example 53, 2-(4-methane-sulfonylbenzyl)-1-oxo-1,2-dihydro-isoquinoline-7-carboxylic Acid 3-methoxy-benzylamide] | 61 µM | > 100 µM | > 30 µM | > 100 µM | 210 nM | – | –
N#Cc1ccc(Cn2ccc3ccc(C#CCc4ccccc4)cc3c2=O)cc1 [Example 19] | > 100 µM | > 100 µM | 5 µM | 28 µM | 49 nM | – | –
COc1ccc(CNC(=O)c2ccc3ccn(Cc4ccc(C#N)cc4)c(=O)c3c2)cc1 [Example 36, 2-(4-cyanobenzyl)-1-oxo-1,2-dihydro-isoquinoline-7-carboxylic Acid 4-methoxybenzylamide] | 24 µM | – | 19 µM | > 30 µM | 240 nM | – | –
COc1ccc(CNC(=O)c2ccc3ccn(Cc4ccc(F)c(F)c4)c(=O)c3c2)cc1 [Example 25] | > 30 µM | > 30 µM | 60 µM | > 100 µM | 330 nM | – | –
COc1cc(CNC(=O)c2ccc3ccn(Cc4ccc(F)c(F)c4)c(=O)c3c2)ccn1 [Example 23, 2-(3,4-difluorobenzyl)-1-oxo-1,2-dihydroisoquinoline-7-carboxylic acid (2-methoxypyridin-4-ylmethyl)amide] | > 100 µM | > 10 µM | > 100 µM | > 100 µM | 290 nM | – | –
O=C(NCc1ccncc1)c1ccc2ccn(Cc3ccc(-c4nn[nH]n4)cc3)c(=O)c2c1 [Example 57, 1-oxo-2-[4-(2H-tetrazol-5-yl)benzyl]-1,2-dihydroisoquinoline-7-carboxylic Acid (pyridin-4-ylmethyl)amide] | > 30 µM | > 100 µM | > 100 µM | > 100 µM | 40 nM | – | –
COc1cccc(CNC(=O)c2ccc3ccn(Cc4ccc(-c5nn[nH]n5)cc4)c(=O)c3c2)c1 [Example 59, 1-oxo-2-[4-(2H-tetrazol-5-yl)benzyl]-1,2-dihydroisoquinoline-7-carboxylic Acid 3-methoxy-benzylamide] | > 10 µM | > 30 µM | > 10 µM | > 30 µM | 2.9 nM | – | –
COc1ccc(CNC(=O)c2ccc3ccn(Cc4ccc(-c5nn[nH]n5)cc4)c(=O)c3c2)cc1 [Example 58, 1-oxo-2-[4-(2H-tetrazol-5-yl)benzyl]-1,2-dihydroisoquinoline-7-carboxylic Acid 4-methoxy-benzylamide] | 56 µM | 11 µM | 27 µM | > 100 µM | 17 nM | – | –
COc1ccc(CNC(=O)c2ccc3ccn(Cc4ccc(S(C)(=O)=O)cc4)c(=O)c3c2)cc1 [Example 52, 2-(4-methane-sulfonylbenzyl)-1-oxo-1,2-dihydro-isoquinoline-7-carboxylic Acid 4-methoxy-benzylamide] | > 30 µM | > 30 µM | > 30 µM | > 30 µM | 850 nM | – | –
COc1cccc(CNC(=O)c2ccc3ccn(Cc4ccc(C#N)cc4)c(=O)c3c2)c1 [Example 37, 2-(4-cyanobenzyl)-1-oxo-1,2-dihydro-isoquinoline-7-carboxylic Acid 3-methoxybenzylamide] | 13 µM | – | 13 µM | > 30 µM | 95 nM | – | –
COc1cccc(CNC(=O)c2ccc3ccn(Cc4ccc(F)c(F)c4)c(=O)c3c2)c1 [Example 24] | 14 µM | > 30 µM | > 30 µM | 0.093 µM | 93 nM | – | –
COc1cc(CNC(=O)c2ccc3ccn(Cc4ccc(C(=O)O)cc4)c(=O)c3c2)ccc1O [Example 32] | > 100 µM | > 100 µM | > 100 µM | > 100 µM | 150 nM | – | –
COc1cc(CNC(=O)c2ccc3ccn(Cc4ccc(C(=O)O)cc4)c(=O)c3c2)ccn1 [Example 27, 4-{7-[(2-methoxypyridin-4-ylmethyl)carbamoyl]-1-oxo-1H-isoquinolin-2-ylmethyl}benzoic acid] | > 100 µM | 74 µM | > 100 µM | > 100 µM | 36 nM | – | –
O=C(NCc1ccc(-c2csnn2)cc1)c1ccc2ccn(Cc3ccc(-c4nn[nH]n4)cc3)c(=O)c2c1 [Example 64, 1-oxo-2-[4-(2H-tetrazol-5-yl)benzyl]-1,2-dihydroisoquinoline-7-carboxylic Acid 4-[1,2,3]thiadiazol-4-yl-benzylamide] | – | > 10 µM | 16 µM | – | 68 nM | – | –
CC1OCCCC1n1ccc2ccc(C#CCc3ccccc3)cc2c1=O (stereo not drawn) [Example 66g, 2-(2-Methyl-tetrahydro-pyran-3-yl)-7-(3-phenyl-prop-1-ynyl)-2H-isoquinolin-1-one] | – | – | – | – | – | > 30000 nM | –
COC(=O)Cn1ccc2ccc(C#CCc3ccccc3)cc2c1=O [Example 66q, [1-Oxo-7-(3-phenyl-prop-1-ynyl)-1H-isoquinolin-2-yl]-acetic acid methyl ester] | – | – | – | – | – | 22000 nM | –
COc1cccc(CNC(=O)c2ccc3ccn(CCOc4ccccc4)c(=O)c3c2)c1 [Example 45, 1-oxo-2-(2-phenoxyethyl)-1,2-dihydroisoquinoline-7-carboxylic Acid 3-methoxybenzylamide] | – | – | – | – | 1200 nM | – | –
CSc1ccc(CNC(=O)c2ccc3ccn(Cc4ccc(S(C)(=O)=O)cc4)c(=O)c3c2)cc1 [Example 56, 2-(4-methane-sulfonylbenzyl)-1-oxo-1,2-dihydro-isoquinoline-7-carboxylic Acid 4-methyl-sulfanylbenzylamide] | – | – | – | – | 2200 nM | – | –
CCOC(=O)CCCn1ccc2ccc(C#CCc3ccccc3)cc2c1=O [Example 66aa, 4-[1-Oxo-7-(3-phenyl-prop-1-ynyl)-1H-isoquinolin-2-yl]-butyric acid ethyl ester] | – | – | – | – | – | 12000 nM | –
O=C(O)c1ccc(Cn2ccc3ccc(C#CCn4ccnc4)cc3c2=O)cc1 [Example 13, 4-[7-(3-Imidazol-1-ylprop-1-ynyl)-1-oxo-1H-isoquinolin-2-ylmethyl]benzoic Acid] | – | – | – | – | – | – | 8.9 nM
COc1cc(CNC(=O)c2ccc3ccn(Cc4ccc(C#N)cc4)c(=O)c3c2)ccn1 [Example 35, 2-(4-cyanobenzyl)-1-oxo-1,2-dihydro-isoquinoline-7-carboxylic Acid (2-methoxypyridin-4-ylmethyl)amide] | > 10 µM | – | 7 µM | 81 µM | 400 nM | – | –
CCC(=O)Cn1ccc2ccc(C#CCc3ccccc3)cc2c1=O [Example 66ab, 2-(2-Oxo-butyl)-7-(3-phenyl-prop-1-ynyl)-2H-isoquinolin-1-one] | – | – | – | – | – | 12000 nM | –
COC(Cn1ccc2ccc(C#CCc3ccccc3)cc2c1=O)OC [Example 66h, 2-(2,2-Dimethoxy-ethyl)-7-(3-phenyl-prop-1-ynyl)-2H-isoquinolin-1-one] | – | – | – | – | – | 34000 nM | –
O=c1c2cc(C#CCc3ccccc3)ccc2ccn1Cc1ccccc1 [Example 66ag, 2-Benzyl-7-(3-phenyl-prop-1-ynyl)-2H-isoquinolin-1-one] | – | – | – | – | – | 1900 nM | –

Reference: US20040044000A1, “Isoquinoline derivatives as matrix metalloproteinase inhibitors” (priority 2002, published 2004)
